Several values for one entry are separate records, joined by “and”; a condition that tells them apart may be missing. Equal values may be shown once. Marks after values point to notes of the source that are not given here.
Key:
Assay type in all cases: physicochemical
[1] = UV absorbance spectrum in solution (λmax, λcrit, extinction coefficients); details: for λcrit: critical wavelength; for E (1%, 1 cm): mass extinction coefficient; for ε: molar extinction coefficient, in M-1 cm-1 (unit assumed)
Text: (§1) FIG. 1 is a graphical representation of the absorbance of compounds 142 and 143 measured in a 10 mm cuvette as 0.001% solutions in methanol (142 is the uppermost trace at peak point of approximately 330 nm); The synthesised benzoyl functionalised compounds and their spectroscopic properties can be seen in table 2 wherein; breakthrough denotes the value in nm where transmittance increases beyond 1%; steepness refers to the distance in nm over which transmittance increases from 1 to 80% (a higher value indicates a less steep transition from absorbing to transmitting and is generally unfavourable); and ^a denotes an average of multiple measurements. As a general comment, it can be noted that the benzoyl substituted compounds gave similar absorbance maxima to the corresponding trifluoroacetyl derivative.

[2] = % transmission spectrum of 0.1% solution (breakthrough, steepness); details: for Steepness: distance in nm over which transmittance increases from 1 to 80%; for Breakthrough (1% T at 0.1%): value in nm where transmittance increases beyond 1%, 0.1% solution
Text: FIG. 2 is a is a graphical representation of the % transmission of compounds 142 and 143 measured in a 2 mm cuvette as 0.1% solutions in methanol (142 is the left most trace);
as §1, with “The” for “FIG. 1 is a graphical representation of the absorbance of compounds 142 and 143 measured in a 10 mm cuvette as 0.001% solutions in methanol (142 is the uppermost trace at peak point of approximately 330 nm); The”

[3] = Photostability protocol: thin film irradiated with xenon arc lamp; details: 1 hour xenon arc lamp, ratio of absorbance at λmax irradiated vs unirradiated, ^a = average of multiple measurements
Method: 1 mL of a 3% solution of the test compound (30 mg of test compound in 1 mL solvent) was prepared in a solvent mix made up of 50% EtOH and 25% capric/caprylic triglyceride and 25% C12-C15 alkyl benzoate. 50 μL of this solution (containing 1.5 mg of test compound) was added carefully to the centre of a glass microscope slide and the volatile components left to evaporate in the dark for at least 3 hours to give a liquid film. The prepared films were then exposed for 1 hour to an Eimac 150 W xenon arc lamp filtered through Pyrex (15 Amp supply current, samples 19 cm from the lamp) previously allowed to warm up for 15 minutes prior to sample exposure. The irradiation was performed in a fume cupboard where the air flow was sufficient to keep sample T<30° C. One hour's exposure represented a calculated radiation dose (using meter) of approximately 100 MED.
In order to calculate the photostability of the test compounds, the exposed slides were placed in a beaker and rinsed with 2×5 mL EtOH, 1×5 mL MeOH. The combined washings were then added to a 100 mL volumetric flask and made up to 100 mL total volume with methanol. The UV absorbance was then measured in a 10 mm cuvette. The percent stability is measured as the ratio of absorbance at λmax for the irradiated sample compared to the unirradiated sample.
The thin films are a good surrogate for testing the stability of a candidate in, for example, a sunscreen formulation as they use cosmetic emollients as solvent and are formed at cosmetically relevant concentrations.

SMILES: CCCN(/C=C(/C(=O)C(F)(F)F)c1ccccc1)c1ccccc1 [Compound 233]
- λmax [1]: 331 nm
- λcrit [1]: 365 nm
- E (1%, 1 cm) [1]: 734
- ε [1]: 24467
- Steepness [2]: 36 nm
- Breakthrough (1% T at 0.1%) [2]: 380 nm
- Photostability [3]: 87%

SMILES: CCCCN(/C=C(/C(=O)C(F)(F)F)c1ccccc1)c1ccccc1 [Compound 234]
- λmax [1]: 330 nm
- λcrit [1]: 365 nm
- E (1%, 1 cm) [1]: 704
- ε [1]: 24440
- Steepness [2]: 31 nm
- Breakthrough (1% T at 0.1%) [2]: 381 nm
- Photostability [3]: 87%

SMILES: CCOC(=O)C(=O)/C(=C/N(c1ccccc1)c1ccccc1)c1ccccc1 [Compound 237]
- λmax [1]: 348 nm
- λcrit [1]: 380 nm
- E (1%, 1 cm) [1]: 775
- ε [1]: 28737
- Steepness [2]: 39 nm
- Breakthrough (1% T at 0.1%) [2]: 400 nm
- Photostability [3]: 83%

SMILES: CN(C)/C=C(/C(=O)c1ccccc1)c1ccccc1 [Compound 240]
- λmax [1]: 313 nm
- λcrit [1]: 361 nm
- E (1%, 1 cm) [1]: 776
- ε [1]: 19475
- Steepness [2]: 40 nm
- Breakthrough (1% T at 0.1%) [2]: 379 nm
- Photostability [3]: 10%

SMILES: O=C(/C(=C/N1CCc2ccccc21)c1ccccc1)c1ccccc1 [Compound 243]
- λmax [1]: 361 nm
- λcrit [1]: 386 nm
- E (1%, 1 cm) [1]: 893
- ε [1]: 29026
- Steepness [2]: 37 nm
- Breakthrough (1% T at 0.1%) [2]: 420 nm
- Photostability [3]: 70%

SMILES: O=C(/C(=C/N(c1ccccc1)c1ccccc1)c1ccccc1)c1ccccc1 [Compound 244]
- λmax [1]: 352 nm
- λcrit [1]: 383 nm
- E (1%, 1 cm) [1]: 536
- ε [1]: 20114
- Steepness [2]: 43 nm
- Breakthrough (1% T at 0.1%) [2]: 407 nm
- Photostability [3]: 58%

SMILES: CCN(/C=C(/C(=O)c1ccccc1)c1ccccc1)c1ccccc1 [Compound 245]
- λmax [1]: 333 nm
- λcrit [1]: 374 nm
- E (1%, 1 cm) [1]: 621
- ε [1]: 20292
- Steepness [2]: 40 nm
- Breakthrough (1% T at 0.1%) [2]: 384 nm and 394 nm
- Photostability [3]: 55%

SMILES: CC1(C)CN(/C=C(/C(=O)c2ccccc2)c2ccccc2)c2ccccc21 [Compound 246]
- λmax [1]: 357 nm
- λcrit [1]: 385 nm
- E (1%, 1 cm) [1]: 451
- ε [1]: 15933
- Steepness [2]: 43 nm
- Breakthrough (1% T at 0.1%) [2]: 405 nm
- Photostability [3]: 53%

SMILES: COC(=O)c1ccc2c(c1)CCN2/C=C(/C(=O)c1ccccc1)c1ccccc1 [Compound 247]
- λmax [1]: 371 nm
- λcrit [1]: 389 nm
- E (1%, 1 cm) [1]: 1096
- ε [1]: 41977
- Steepness [2]: 34 nm
- Breakthrough (1% T at 0.1%) [2]: 422 nm
- Photostability [3]: 76%

SMILES: CCOC(=O)C(=O)/C(=C\N(CC)c1ccccc1)c1ccccc1 [Compound 248]
- λmax [1]: 329 nm
- λcrit [1]: 368 nm
- E (1%, 1 cm) [1]: 728
- ε [1]: 23523
- Steepness [2]: 38 nm
- Breakthrough (1% T at 0.1%) [2]: 383 nm
- Photostability [3]: 78%

SMILES: Cc1ccccc1C(=O)/C(=C/N(c1ccccc1)c1ccccc1)c1ccccc1 [Compound 250]
- λmax [1]: 341 nm
- λcrit [1]: 373 nm
- E (1%, 1 cm) [1]: 738
- ε [1]: 28714
- Steepness [2]: 37 nm
- Breakthrough (1% T at 0.1%) [2]: 389 nm
- Photostability [3]: 60%

SMILES: Cc1ccccc1C(=O)/C(=C/N1CCc2ccccc21)c1ccccc1 [Compound 251]
- λmax [1]: 355 nm
- λcrit [1]: 378 nm
- E (1%, 1 cm) [1]: 991
- ε [1]: 33598
- Steepness [2]: 30 nm
- Breakthrough (1% T at 0.1%) [2]: 399 nm
- Photostability [3]: 52%

SMILES: CCN(/C=C(/C(=O)c1ccccc1C)c1ccccc1)c1ccccc1 [Compound 252]
- λmax [1]: 323 nm
- λcrit [1]: 359 nm
- E (1%, 1 cm) [1]: 771
- ε [1]: 26295
- Steepness [2]: 39 nm
- Breakthrough (1% T at 0.1%) [2]: 373 nm and 372 nm
- Photostability [3]: 48%

SMILES: Cc1cc(C)c(C(=O)/C(=C/N2CCc3ccccc32)c2ccccc2)c(C)c1 [Compound 253]
- λmax [1]: 355 nm
- λcrit [1]: 375 nm
- E (1%, 1 cm) [1]: 929
- ε [1]: 34122
- Steepness [2]: 26 nm
- Breakthrough (1% T at 0.1%) [2]: 392 nm
- Photostability [3]: 78%

SMILES: Cc1cc(C)c(C(=O)/C(=C/N(c2ccccc2)c2ccccc2)c2ccccc2)c(C)c1 [Compound 254]
- λmax [1]: 341 nm
- λcrit [1]: 369 nm
- E (1%, 1 cm) [1]: 661
- ε [1]: 27592
- Steepness [2]: 32 nm
- Breakthrough (1% T at 0.1%) [2]: 383 nm
- Photostability [3]: 88^a %

SMILES: CCN(/C=C(/C(=O)c1c(C)cc(C)cc1C)c1ccccc1)c1ccccc1 [Compound 255]
- λmax [1]: 323 nm
- λcrit [1]: 351 nm
- E (1%, 1 cm) [1]: 798
- ε [1]: 29450
- Steepness [2]: 34 nm
- Breakthrough (1% T at 0.1%) [2]: 364 nm
- Photostability [3]: 83^a %

SMILES: CCOC(=O)C(=O)/C(=C/N1CCc2cc(C(=O)OC)ccc21)c1ccccc1 [Compound 256]
- λmax [1]: 372 nm
- λcrit [1]: 391 nm
- ε [1]: 48566 and 46566
- Steepness [2]: 28 nm
- Breakthrough (1% T at 0.1%) [2]: 421 nm
- Photostability [3]: 85%

SMILES: CN(C)C(=O)C(=O)/C(=C/N(c1ccccc1)c1ccccc1)c1ccccc1 [Compound 257]
- λmax [1]: 346 nm
- λcrit [1]: 378 nm
- E (1%, 1 cm) [1]: 382
- ε [1]: 14163
- Steepness [2]: 32 nm
- Breakthrough (1% T at 0.1%) [2]: 394 nm
- Photostability [3]: 85%

SMILES: CN(C)C(=O)C(=O)/C(=C\N1CCc2ccccc21)c1ccccc1 [Compound 258]
- λmax [1]: 359 nm
- λcrit [1]: 384 nm
- E (1%, 1 cm) [1]: 1045
- ε [1]: 33443
- Steepness [2]: 23 nm
- Breakthrough (1% T at 0.1%) [2]: 409 nm
- Photostability [3]: 63%

SMILES: CCN(/C=C(\C(=O)C(=O)N(C)C)c1ccccc1)c1ccccc1 [Compound 259]
- λmax [1]: 326 nm
- λcrit [1]: 365 nm
- E (1%, 1 cm) [1]: 724
- ε [1]: 23336
- Steepness [2]: 34 nm
- Breakthrough (1% T at 0.1%) [2]: 378 nm
- Photostability [3]: 66%

SMILES: CCOC(=O)C(=O)/C(=C/N(CC)CC)c1ccccc1 [Compound 260]
- λmax [1]: 313 nm
- λcrit [1]: 352 nm
- E (1%, 1 cm) [1]: 726
- ε [1]: 19983
- Steepness [2]: 38 nm
- Breakthrough (1% T at 0.1%) [2]: 363 nm
- Photostability [3]: 40%

SMILES: CCN(/C=C(/C(=O)C(=O)N(C)C)c1ccccc1)CC [Compound 261]
- λmax [1]: 310 nm
- λcrit [1]: 342 nm
- E (1%, 1 cm) [1]: 844
- ε [1]: 23144
- Steepness [2]: 28 nm
- Breakthrough (1% T at 0.1%) [2]: 355 nm
- Photostability [3]: 63%

SMILES: CCN(/C=C(/C(=O)c1ccc(S(=O)(=O)N(C)C)cc1)c1ccccc1)c1ccccc1 [Compound 264]
- λmax [1]: 340 nm
- λcrit [1]: 381 nm
- E (1%, 1 cm) [1]: 433
- ε [1]: 18791
- Steepness [2]: 46 nm
- Breakthrough (1% T at 0.1%) [2]: 403 nm
- Photostability [3]: 20%

SMILES: CC(C)(C)OC(=O)C(=O)/C(=C/N1CCc2ccccc21)c1ccccc1 [Compound 267]
- λmax [1]: 366 nm
- λcrit [1]: 389 nm
- E (1%, 1 cm) [1]: 940
- ε [1]: 32824
- Steepness [2]: 32 nm
- Breakthrough (1% T at 0.1%) [2]: 417 nm
- Photostability [3]: 76%

SMILES: CCN(/C=C(/C(=O)c1ccccc1)c1ccccc1)CC [Compound 268]
- λmax [1]: 312 nm
- λcrit [1]: 360 nm
- E (1%, 1 cm) [1]: 656
- ε [1]: 18293
- Steepness [2]: 48 nm
- Breakthrough (1% T at 0.1%) [2]: 374 nm
- Photostability [3]: 10%

SMILES: COC(=O)c1ccc2c(c1)CCN2/C=C(/C(=O)C(=O)OC(C)(C)C)c1ccccc1 [Compound 269]
- λmax [1]: 374 nm
- λcrit [1]: 391 nm
- E (1%, 1 cm) [1]: 1033
- ε [1]: 42074
- Steepness [2]: 26 nm
- Breakthrough (1% T at 0.1%) [2]: 419 nm
- Photostability [3]: 94% and 94^a % and 98% and 91%

From US11512042B2, “Enamine compounds for absorbance of electromagnetic energy” (Commonwealth Scientific and Industrial Research Organisation, priority 2015, dated 2022)
